# Measured values published in US4738979A, “α2 -blocking derivatives of imidazole” (G. D. Searle & Co., priority 1985, dated 1988).
# Tests used:
# [1] = system: α1 -adrenergic receptors; assay: binding to α1-adrenergic receptors on rat brain homogenates (3H-WB 4101); settings: 1.6 nM 3H-WB 4101
# Experimental: The activity of the compounds according to the invention with respect to binding of the α-adrenergic receptors was determined in vitro according to a method deriving from the works of B. R. Rouot et al., Life Sci., 25, 769 (1979) and of D. U'Prichard et al., Mol. Pharmacol., 13, 454 (1977). This method consists in measuring the binding to the receptor on rat brain homogenates, by marking by means of a specific tritriated ligand placed in competition with the product to be tested.
# In the presenct case the binding to the α1 -adrenergic receptors was measured by means of 1.6 nM of ^3 H-WB 4101 and the binding to the α2 -adrenergic receptors by means of 0.7 nM of ^3 H-p. aminoclonidine, the non-specific binding being determined by 1,000 nM of phentolamine. The results are given in Table II, column 3, and are expressed in terms of percentage of inhibition of the specific binding of 10^-7 molar compound concentration.
# (2) The specific binding is the total binding less the nonspecific
# binding. The total binding is the binding in the absence of nonradioactiv
# drug. The nonspecific binding is the binding in the presence of 1,000 nM
# of phentolamine. The products of the invention are tested at a
# concentration of 10^-7 molar.
# [2] = target: T1, α2 -adrenergic receptors (Cavia porcellus, UniProt Q60474); assay: α2 antagonist and α2 agonist activity in isolated guinea pig ileum (clonidine); settings: for EC50: 50% of maximum inhibition obtained with clonidine, read-out: α2 Agonist Activity (-log ED50) (converted); for Kb: versus clonidine, read-out: α2 Antagonist Activity (pA2) (converted)
# T1 construct: from tissue; host or cells: isolated guinea pig ileum
# T1 sequence (Q60474 1-464): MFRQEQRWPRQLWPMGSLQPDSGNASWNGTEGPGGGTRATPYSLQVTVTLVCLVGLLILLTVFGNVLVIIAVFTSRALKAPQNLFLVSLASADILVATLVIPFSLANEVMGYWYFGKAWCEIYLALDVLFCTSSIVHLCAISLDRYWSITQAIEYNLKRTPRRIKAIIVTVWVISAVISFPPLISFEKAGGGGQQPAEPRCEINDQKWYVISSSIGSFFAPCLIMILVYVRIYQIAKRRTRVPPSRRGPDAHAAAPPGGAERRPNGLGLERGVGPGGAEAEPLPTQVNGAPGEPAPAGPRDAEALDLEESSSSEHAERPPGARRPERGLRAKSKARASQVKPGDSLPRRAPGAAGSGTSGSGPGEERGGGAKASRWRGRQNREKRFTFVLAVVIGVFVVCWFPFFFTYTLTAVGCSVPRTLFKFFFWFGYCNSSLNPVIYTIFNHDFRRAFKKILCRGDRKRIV
# Experimental: The α2 antagonist and α2 agonist activity of the compounds according to the invention was determined upon isolated organs according to a model described by G. M. Drews, Br. J. Pharmaco., 64, 293-300 (1978).
# This model is based upon the principle that the stimulation of the cholinergic nervous transmissions of the guinea pig ileum causes the liberation of acetyl choline, which in turn causes contractions of the ileum.
# The stimulation of the α2 -adrenergic receptors inhibits the activity of the cholinergic nerve and consequently reduces all response resulting from a timulation of the latter. Thus the contractions of the ileum induced by electric stimulation of the tissue are inhibited by clonidine, an α2 agonist, in proportion to the dose. This inhibition is specifically displaced by the α2 antagonists and not by the α1 antagonists.
# The method utilized can be summarized as follows: three dose-response curves to clonidine are established at an interval of 60 minutes. Two concentrations of the product to be tested are added successively 10 minutes before the realization of the second and third clonidine curves. Next, after washing, a dose-response curve is established with the product to be tested.
# The dose-response curves are calculated as a percentage of the maximum inhibition obtained for the first curve. In this system the products having an α2 antagonist activity displace the dose-response curve to clonidine. The α2 antagonist activity, expressed in pA2 value, shown in column 4, is calculated according to J. M. Van Rossum, Arch. Int. Pharmacodyn., 143, 299-300 (1963).
# A reduction of the contractions induced by the tested product alone indicates an α2 agonist effect. This activity is expressed in--log ED50 (the--logarithm of the concentration of the product giving 50% of the maximum inhibition obtained with clonidine).
# The higher the pA2 value, the higher the α2 antagonist activity; the higher the--log ED50 value (i.e., the pA2 agonist activity), the higher the α2 agonist activity.
# [3] = system: α2 adrenergic receptors of the central nervous system; assay: inhibition of the antihypertensive action of clonidine in spontaneously hypertensive rats (SHR); format: in vivo, rat; settings: 1 mg/kg p.o., clonidine 50 μg/kg s.c.
# Experimental: In the first study, carried out upon unanaesthetized spontaneously hypertensive rats (SHR rats), the ability of the compounds of the present invention to inhibit the antihypertensive action of clonidine was determined.
# The antihypertensive activity of clonidine results from an interaction with α2 adrenergic receptors of the central nervous system, i.e., central antihypertensive actions.
# In this test, two groups of SHR rats are utilized as follows. In the first group, prior to subcutaneous administration of clonidine (50 μg/kg), the SHR rats are treated with the compound to be tested (1 mg/kg p.o.) dissolved in a saline vehicle. The second group (control group) of SHR rats are treated with the saline vehicle only, prior to subcutaneous administration of clonidine.
# The arterial pressure is measured in the region of the median coccygeal artery according to the method of J. Roba, A. F. DeSchaepdrijver, Exp. Anim., 4, 147-162 (1971).
# The results of this assay summarized in Table II, column 5, are expressed as a percentage of inhibition of the effect of clonidine.
# [4] = system: bicuculline-induced tonic extension in mice; assay: protection against bicuculline-induced tonic extension in mice; format: in vivo; settings: Mus musculus, iv, 3 hours prior to bicuculline 0.7 mg/kg i.v., read-out: Anticonvulsive effect (versus Bicuculline) (% Protection)
# Experimental: In the second study the anti-convulsant effect of the compounds of the present invention was examined in two seizure models; bicuculline-induced tonic extension in mice and 3-mercaptopropionic acid (3-MPA)-induced tonic extension in mice.
# In the bicuculline study, the ability of the compounds of the present invention to protect against tonic extension (involving rigidity) was evaluated as follows. Each test compound was administered to a group of ten mice at a dose of 10 mg/kg, 3 hours prior to the i.v. administration of bicuculline (0.7 mg/kg). Anticonvulsant activity in this test is expressed as percentage of animals tested. The results are given in Table II, column 6, and indicate that several compounds display significant anticonvulsive activity in this test. The anticonvulsant effect of the compounds has also been tested with respect to the tonic extension induced by 3-mercaptopropionic acid (120 mg/kg subcutaneously) in mice.
SMILES,% Inhibition of the Specific Binding at 10^-7 M for α1 Recep. [1],EC50 [2],Kb [2],α2 Antagonist (% Inhibition of the Antihypertension of Clonidine) [3],responders at 10 mg/kg [4]
"c1ccc(C(Cc2c[nH]cn2)c2ccccc2)cc1 [Compound 1, 4(5)-(2,2-diphenylethyl)-imidazole]",17%,3.16 µM,5.01 nM,50%,0%
"COc1ccc(C(Cc2c[nH]cn2)c2ccccc2)cc1 (centres unmarked) [Compound 17, 4(5)-{[2-(4-methoxyphenyl)-2-phenyl]ethyl}imidazole]",6%,10 µM,12.6 nM,26%,10%
Cc1ccc(C(Cc2c[nH]cn2)c2ccccc2)cc1 (centres unmarked) [Compound 21],4%,5.01 µM,25.1 nM,48%,50%
"Fc1ccc(C(Cc2c[nH]cn2)c2ccccc2)cc1 (centres unmarked) [Compound 14, 4(5)-{[2-(4-fluorophenyl)-2-phenyl]ethyl}imidazole]",0%,6.31 µM,15.8 nM,82%,0%
"Cc1cccc(C(Cc2c[nH]cn2)c2ccccc2)c1 (centres unmarked) [Compound 9, 4(5)-{[2-(3-methylphenyl)-2-phenyl]ethyl}imidazole]",4%,2.51 µM,15.8 nM,92%,20%
"Fc1ccc(C(Cc2c[nH]cn2)c2ccccc2F)cc1 (centres unmarked) [Compound 15, 4(5)-{[2-(2-fluorophenyl)-2-(4'-fluorophenyl)]ethyl}imidazole]",7%,5.01 µM,15.8 nM,75%,0%
Cc1ccccc1C(Cc1c[nH]cn1)c1ccccc1 (centres unmarked) [Compound 12],0%,3.98 µM,12.6 nM,78%,50%
Cc1ccc(C)c(C(Cc2c[nH]cn2)c2ccccc2)c1 (centres unmarked) [Compound 16],0%,2 µM,100 nM,69%,20%
CC(c1c[nH]cn1)C(c1ccccc1)c1ccccc1 (centres unmarked) [Compound 4],4%,> 3.16 µM,316 nM,68%,40%
"Clc1ccccc1C(Cc1c[nH]cn1)c1ccccc1 (centres unmarked) [Compound 13, 4(5)-{[2-(2-chlorophenyl)-2-phenyl]ethyl}imidazole]",7%,3.16 µM,10 nM,46%,20%
